Results published in US20230159509A1 (Amathus Therapeutics, Inc., priority 2020, published 2023).

Biological target: T1, TRAP1 enzyme (Homo sapiens, UniProt Q12931)
T1 construct: 150 nM Trap1 enzyme was incubated with various concentrations of the test compound
T1 sequence (Q12931 60-704): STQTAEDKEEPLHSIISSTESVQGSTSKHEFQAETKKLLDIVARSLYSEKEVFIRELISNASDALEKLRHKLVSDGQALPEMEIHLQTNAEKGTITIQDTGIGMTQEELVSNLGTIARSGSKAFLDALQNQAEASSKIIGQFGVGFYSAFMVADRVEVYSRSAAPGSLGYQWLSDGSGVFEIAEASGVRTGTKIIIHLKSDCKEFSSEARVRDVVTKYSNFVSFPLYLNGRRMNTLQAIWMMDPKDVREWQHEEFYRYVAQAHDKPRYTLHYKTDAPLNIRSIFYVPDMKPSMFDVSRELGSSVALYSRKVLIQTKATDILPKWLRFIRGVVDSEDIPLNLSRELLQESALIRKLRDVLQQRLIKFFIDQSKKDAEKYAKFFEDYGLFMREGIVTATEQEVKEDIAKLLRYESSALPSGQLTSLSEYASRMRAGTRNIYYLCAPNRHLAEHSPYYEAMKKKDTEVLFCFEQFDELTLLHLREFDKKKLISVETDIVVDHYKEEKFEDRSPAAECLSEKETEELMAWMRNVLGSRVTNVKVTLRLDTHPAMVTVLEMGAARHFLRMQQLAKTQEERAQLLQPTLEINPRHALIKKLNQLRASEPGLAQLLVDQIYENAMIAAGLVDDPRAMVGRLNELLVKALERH
Assay: ADP Glo assay of TRAP1 ATPase activity
Assay type: biochemical
Details: for activation at 50 µM: 1 h, compound concentration 50 μM, read-out: ADP-Glo Percent Activation at 50 μM; for EC50: concentration for half maximal activation, read-out: ADP GLO DRC: GeoMean EC50; for Emax: maximal percent activation, read-out: ADP GLO DRC: Mean Emax
Protocol: Potency of test compounds to modulate the ATPase activity of TRAP1 enzyme was evaluated using ADP Glo assay. The assay is based on quantification of the ADP generated from ATP in the ATPase reaction. The assay is performed in two steps; first, after the ATPase reaction an equal volume of ADP-Glo™ Reagent is added to terminate the ATPase reaction and deplete the remaining ATP. Second, the Kinase Detection Reagent is added to simultaneously convert ADP to ATP and allow the newly synthesized ATP to be measured using a luciferase/luciferin reaction.
All the assays were carried out in a 384-well Proxiplate. The buffer used was 25 mM Pipes pH-7.5, 40 mM KCl, 0.05 mM MgCl2, 0.025% BSA, 0.316 mM EGTA, 0.003% Empigen, 0.01% Igepal. 150 nM Trap1 enzyme was incubated with various concentrations of the test compound (0.79 μM-100 μM) at 37° C. for 30 mins (except in blank wells). 20 μM ATP was added to each well to start the reaction. The plate was spun for 1 min at 1200 rpm and then incubated at 37° C. for 60 mins. 5 μl of ADP Glo reagent was added to all the wells and spun the plate for 1 min at 1200 rpm and kept it on a shaker at ambient temperature for 60 mins. 10 μl of kinase detection mix was added to all the wells and the plate was read for Luminescence at 495 nm. The amount of ADP released was estimated from ATP/ADP standard curve generated at the same experimental conditions. Emax (Maximal percent activation) and EC50 (concentration for half maximal activation) were estimated by fitting the dose response data to a sigmoidal curve fitting equation using Graphpad Prism software V. 8.

SMILES | activation at 50 µM | EC50 | Emax
COc1ncc(NC(=O)c2cc(C)n(C)n2)cc1S(=O)(=O)Nc1c(C)cccc1C [compound 2564] | 120 to 150% | – | –
COc1ncc(NC(=O)c2ncc(-c3ccccc3)o2)cc1S(=O)(=O)Nc1cc(F)c(C)cc1C#N [compound 1898] | – | 20 to 100 µM | 200 to 300%
COc1cccnc1C(=O)Nc1cnc(OC)c(S(=O)(=O)Nc2c(C)cccc2C)c1 [compound 2549] | 120 to 150% | – | –
COc1ncc(NC(=O)c2csc(-c3ccccc3)n2)cc1S(=O)(=O)Nc1ccc(Cl)nc1C [compound 1382, N-(5-(N-(6-chloro-2-methylpyridin-3-yl)sulfamoyl)-6-methoxypyridin-3-yl)-2-phenylthiazole-4-carboxamide] | – | 20 to 100 µM | 200 to 300%
COc1ncc(NC(=O)c2csc(-c3ccccc3)n2)cc1S(=O)(=O)Nc1cc(C(F)(F)F)n[nH]1 [compound 1746] | – | 20 to 100 µM | 200 to 300%
COc1ncc(NC(=O)c2nn(C)cc2C)cc1S(=O)(=O)Nc1c(C)cccc1C [compound 2643] | 181 to 352% | – | –
COc1ncc(NC(=O)c2cnc(-c3ccccc3)[nH]2)cc1S(=O)(=O)Nc1ccc(Cl)cc1 [compound 1481, N-(5-(N-(4-chlorophenyl)sulfamoyl)-6-methoxypyridin-3-yl)-2-phenyl-1H-imidazole-5-carboxamide] | – | 10 to 20 µM | 160 to 199%
COc1ncc(NC(=O)c2ccc(N3CCN(C)CC3)c(Cl)c2)cc1S(=O)(=O)Nc1c(C)cccc1C [compound 2764] | 181 to 352% | – | –
COc1ncc(NC(=O)c2csc(-c3ccc(F)cc3)n2)cc1S(=O)(=O)Nc1c(C)cccc1C [compound 1413, N-(5-(N-(2,6-dimethylphenyl)sulfamoyl)-6-methoxypyridin-3-yl)-2-(4-fluorophenyl)thiazole-4-carboxamide] | – | < 10 µM | 119 to 159%
COc1ncc(NC(=O)c2cccc(-c3noc(C)n3)c2)cc1S(=O)(=O)Nc1c(C)cccc1C [compound 1401, N-(5-(N-(2,6-dimethylphenyl)sulfamoyl)-6-methoxypyridin-3-yl)-3-(5-methyl-1,2,4-oxadiazol-3-yl)benzamide] | – | 10 to 20 µM | 160 to 199%
COc1ncc(NC(=O)c2ccc(N3CCN(C)CC3)c(F)c2)cc1S(=O)(=O)Nc1c(C)cccc1C [compound 2742] | 181 to 352% | – | –
COc1ncc(NC(=O)c2csc3c2CCC3)cc1S(=O)(=O)Nc1c(C)cccc1C [compound 1425, N-(5-(N-(2,6-dimethylphenyl)sulfamoyl)-6-methoxypyridin-3-yl)-5,6-dihydro-4H-cyclopenta[b]thiophene-3-carboxamide] | – | < 10 µM | 160 to 199%
CCc1oncc1C(=O)Nc1cnc(OC)c(S(=O)(=O)Nc2c(C)cccc2C)c1 [compound 2711] | 120 to 150% | – | –
COc1ncc(NC(=O)c2cnn(C)c2C(F)F)cc1S(=O)(=O)Nc1c(C)cccc1C [compound 2713] | 181 to 352% | – | –
COc1ncc(NC(=O)c2csnc2C)cc1S(=O)(=O)Nc1c(C)cccc1C [compound 2703] | 120 to 150% | – | –
COc1ncc(NC(=O)c2ncn(C)c2C)cc1S(=O)(=O)Nc1c(C)cccc1C [compound 2571] | 151 to 180% | – | –
COc1ncc(NC(=O)c2cnn(C(C)C)c2)cc1S(=O)(=O)Nc1c(C)cccc1C [compound 2639] | 151 to 180% | – | –
CCn1nc(C)cc1C(=O)Nc1cnc(OC)c(S(=O)(=O)Nc2c(C)cccc2C)c1 [compound 2609] | 181 to 352% | – | –
COc1ncc(NC(=O)c2cnn3c2CCCC3)cc1S(=O)(=O)Nc1c(C)cccc1C [compound 2673] | 181 to 352% | – | –
COc1ncc(NC(=O)c2cccc3c2CCC(=O)N3)cc1S(=O)(=O)Nc1c(C)cccc1C [compound 2525] | 151 to 180% | – | –
COc1ncc(NC(=O)c2ccc(N3CCCC3=O)cc2)cc1S(=O)(=O)Nc1c(C)cccc1C [compound 2532] | 151 to 180% | – | –

SMILES | activation at 50 µM | EC50 | Emax
COc1ncc(NC(=O)c2ncc(-c3ccccc3)o2)cc1S(=O)(=O)Nc1sc2c(c1C#N)CCCC2 [compound 1519] | – | 10 to 20 µM | 160 to 199%
COc1ncc(NC(=O)c2cnc(N(C)C)nc2)cc1S(=O)(=O)Nc1c(C)cccc1C [compound 2737] | 120 to 150% | – | –
COc1ncc(NC(=O)c2[nH]cnc2C)cc1S(=O)(=O)Nc1c(C)cccc1C [compound 2731] | 120 to 150% | – | –
COc1ncc(NC(=O)c2n[nH]cc2C)cc1S(=O)(=O)Nc1c(C)cccc1C [compound 2756] | 151 to 180% | – | –
COc1ncc(NC(=O)c2ccnc(N3CCOCC3)c2)cc1S(=O)(=O)Nc1c(C)cccc1C [compound 2744] | 181 to 352% | – | –
COc1ncc(NC(=O)c2ccc(OCC(F)(F)F)cc2)cc1S(=O)(=O)Nc1c(C)cccc1C [compound 2662] | 120 to 150% | – | –
COc1ncc(NC(=O)c2ccc(CN3CCCCC3)cc2)cc1S(=O)(=O)Nc1c(C)cccc1C [compound 2770] | 151 to 180% | – | –
COc1ncc(NC(=O)c2csc(-c3ccccc3)n2)cc1S(=O)(=O)Nc1cc(C)n(C(C)C)n1 [compound 1754] | – | 10 to 20 µM | 160 to 199%
COc1ccc(F)cc1C(=O)Nc1cnc(OC)c(S(=O)(=O)Nc2c(C)cccc2C)c1 [compound 1990, N-(5-(N-(2,6-dimethylphenyl)sulfamoyl)-6-methoxypyridin-3-yl)-5-fluoro-2-methoxybenzamide] | – | 10 to 20 µM | 200 to 300%
COc1nc2c(cc1C(=O)Nc1cnc(OC)c(S(=O)(=O)Nc3c(C)cccc3C)c1)CCC2 [compound 2790] | 181 to 352% | – | –
COc1ncc(NC(=O)c2cc3[nH]c(=O)[nH]c(=O)n3c2)cc1S(=O)(=O)Nc1c(C)cccc1C [compound 2732] | 151 to 180% | – | –
COc1cccc(OC)c1NS(=O)(=O)c1cc(NC(=O)c2ncc(-c3ccccc3)o2)cnc1OC [compound 1706] | – | 10 to 20 µM | 119 to 159%
COc1ncc(NC(=O)c2nc(C)oc2C)cc1S(=O)(=O)Nc1c(C)cccc1C [compound 2692] | 120 to 150% | – | –
COc1ncc(NC(=O)c2ccc3nc(C)sc3c2)cc1S(=O)(=O)Nc1c(C)cccc1C [compound 1400, N-(5-(N-(2,6-dimethylphenyl)sulfamoyl)-6-methoxypyridin-3-yl)-2-methylbenzo[d]thiazole-6-carboxamide] | – | 10 to 20 µM | 200 to 300%
COc1ncc(NC(=O)c2coc(-c3ccccc3)n2)cc1S(=O)(=O)Nc1ccc(F)cc1C(C)C [compound 2381] | – | < 10 µM | 200 to 300%
COc1ncc(NC(=O)c2ccc(S(=O)(=O)N(C)C)cc2)cc1S(=O)(=O)Nc1c(C)cccc1C [compound 2593] | 151 to 180% | – | –
O=C(Nc1cc(S(=O)(=O)Nc2ccc(Cl)cc2)ccn1)c1cnc(-c2ccccc2)[nH]1 [compound 1361, N-(4-(N-(4-chlorophenyl)sulfamoyl)pyridin-2-yl)-2-phenyl-1H-imidazole-5-carboxamide] | – | 10 to 20 µM | 200 to 300%
COc1ncc(NC(=O)c2ccc(NC(C)=O)cc2C)cc1S(=O)(=O)Nc1c(C)cccc1C [compound 2670] | 151 to 180% | – | –
COc1ncc(NC(=O)c2csc(-c3ccncc3)n2)cc1S(=O)(=O)Nc1c(C)cccc1C [compound 1351, N-(5-(N-(2,6-dimethylphenyl)sulfamoyl)-6-methoxypyridin-3-yl)-2-(pyridin-4-yl)thiazole-4-carboxamide] | – | 10 to 20 µM | 119 to 159%
COc1ncc(NC(=O)c2cn(C)c3ncccc23)cc1S(=O)(=O)Nc1ccc(Cl)cc1 [compound 1359, N-(5-(N-(4-chlorophenyl)sulfamoyl)-6-methoxypyridin-3-yl)-1-methyl-1H-pyrrolo [2,3-b]pyridine-3-carboxamide] | – | 20 to 100 µM | 119 to 159%
COc1ncc(NC(=O)c2ccc(CN3CCOCC3)cc2)cc1S(=O)(=O)Nc1c(C)cccc1C [compound 2570] | 181 to 352% | – | –
